The target of the test is T1, human S1P1 receptors (Homo sapiens, UniProt P21453).
T1 construct: host or cells: HEK293
Kind of test: S1P1R antagonist assay (fluorescent membrane potential dye, cAMP readout). The test is classed as cell-based. The conditions noted are these: HEK293 cells expressing human S1P1 receptors and CNG channel; 500 nM NECA; S1P1R agonist 10 nM; 90 minutes; read-out: EC50 or IC50 value. The text has this:
The S1P1R antagonist assay is a fluorescent membrane potential dye measurement assay, indicative of intracellular cAMP changes due to G protein-coupled receptor activation. HEK293 cells engineered to express human S1P1 receptors and a cyclic nucleotide-gated (CNG) channel are obtained from BD Biosciences, 80300-250. The CNG channels are activated by elevated levels of cAMP, resulting in ion flux and cell membrane depolarization. Membrane depolarization is detected with a membrane potential dye. Stimulation of the cells with 5′-(N-ethylcarboxamido)adenosine (NECA), an A2b receptor agonist (Sigma, E2387), elicits an A2bR-dependent increase in cAMP.
Subsequent exposure of the cells to a S1P1R agonist suppresses the NECA induced increase in cAMP through S1P1R-specific signaling by inhibiting adenylyl cyclase and the formation of cAMP from ATP. The degree to which a test compound overcomes the S1P1R agonist suppression of the NECA induced increase in cAMP is a measure of S1P1R antagonist activity. Antagonist activity is quantified as the IC50 (i.e., the concentration needed to elicited one-half of the maximum response of the test compound) and/or as the EC50 (i.e., the concentration needed to elicited one-half of the NECA induced stimulation).
Day 1: Freshly thawed cells were plated into 384-well plates (Corning, 3683) at a density of 14,000 cells/well in 20 μL, complete media and incubated for 16 hours at 37° C., 5% CO2 and 99% relative humidity. Complete media included Dulbecco's modified Eagle's medium (Invitrogen, 11965-092), 10% Fetal bovine serum (Hyclone, SH30071.03), 250 μg/mL geneticin (Invitrogen, 10131-027), and 1 μg/mL Puromycin (Fluka, 82595).
Day 2: Membrane potential dye (20 μL, BD Biosciences, 341833) was added to each well and the plates were incubated for 2.5 hours at ambient temperature. Test compounds (20 μL) were added to the wells at various concentrations (≦10 μM, 1 to 3 dilutions) in a NECA base solution and incubated for 90 minutes in the presence of the S1P1R agonist {4-((4-phenyl-5-trifluoromethyl-2-thienyl)methoxy)benzyl}-3-azetidinecarboxylic acid (10 nM). The NECA-base solution contained Dulbecco's phosphate-buffered saline (Invitrogen, 14190-136), 2.5% DMSO (Fluka, 41648), 25 μM Ro 20-1724 (Sigma, B8279), and 500 nM NECA).
Assay plates were read with a PerkinElmer EnVision reader (Excitation 350 nm, Emission 590 nm) at time T=0 minutes, before compound addition and at time T=90 minutes. The signal was calculated as the ratio T90/T0. Data was analyzed in ActivityBase XE and graphs showing log of compound concentration (X-axis) vs. % activity (Y-axis) were generated for IC50 determinations. Percent activity was calculated with the following formula: (Signal−Agonist Control Signal)/(NECA Control Signal−Agonist Control Signal)×100.

Molecules are shown by their SMILES.

From patent US8791102B2, “Acetanilide sphingosine-1-phosphate receptor antagonists” (Exelixis, Inc., priority 2008, dated 2014) come the findings set out here.

T1 sequence (P21453 whole entry): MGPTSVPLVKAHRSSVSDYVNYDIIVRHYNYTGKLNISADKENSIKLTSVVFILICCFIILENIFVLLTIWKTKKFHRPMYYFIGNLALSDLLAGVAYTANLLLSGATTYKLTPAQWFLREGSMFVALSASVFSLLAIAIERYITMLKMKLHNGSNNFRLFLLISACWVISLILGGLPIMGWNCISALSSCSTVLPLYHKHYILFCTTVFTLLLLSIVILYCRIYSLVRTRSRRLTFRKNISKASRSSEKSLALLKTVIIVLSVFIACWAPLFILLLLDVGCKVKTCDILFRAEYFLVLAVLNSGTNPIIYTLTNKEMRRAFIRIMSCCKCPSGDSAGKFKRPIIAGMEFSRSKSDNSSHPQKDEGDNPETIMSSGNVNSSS

Turning to `Cc1cc(CC(=O)N[C@@H](COCc2ccccc2)C(=O)Nc2ccc(Oc3ccc(F)cc3)cc2)[nH]n1` [Compound 166, (S)-3-(benzyloxy)-N-(4-(4-fluorophenoxy)phenyl)-2-(2-(3-methyl-1H-pyrazol-5-yl)acetamido)propanamide], the 50% inhibitory concentration (IC50) is not above 300 nM.
As to `O=C(CN1CCC(Cc2ccccc2)CC1)N[C@@H](COCc1ccccc1)C(=O)Nc1ccc(Oc2ccc(F)cc2)cc1` [Compound 220, (S)-3-(benzyloxy)-2-(2-(4-benzylpiperidin-1-yl)acetamido)-N-(4-(4-fluorophenoxy)phenyl)propanamide], the IC50 was in the range of 300 to 1000 nM.
For `O=C(NC(COCc1ccccc1)C(=O)Nc1ccc(Oc2ccccc2)cc1)C1CCC1` (stereo not shown) [Compound 402, N-(2-oxo-1-{[(phenylmethyl)oxy]methyl}-2-{[4-(phenyloxy)phenyl]amino}ethyl)cyclobutanecarboxamide], the IC50 was more than 1000 nM.
Take `O=C(Nc1ccc(Oc2ccc(F)cc2)cc1)[C@@H]1C[C@@H](Cc2ccccc2F)CN1C(=O)Cn1nccn1` [Compound 107, (2S,4R)-1-(2-(2H-1,2,3-triazol-2-yl)acetyl)-4-(2-fluorobenzyl)-N-(4-(4-fluorophenoxy)phenyl)pyrrolidine-2-carboxamide]: the 50% inhibitory concentration (IC50) was not above 300 nM.
Take `CC(C)CCC(=O)NC(COCc1ccccc1)C(=O)Nc1ccc(Oc2ccccc2)cc1` (stereo not shown) [Compound 287, 4-methyl-N-(2-oxo-1-{[(phenylmethyl)oxy]methyl}-2-{[4-(phenyloxy)phenyl]amino}ethyl)pentanamide]: the IC50 was more than 1000 nM.
Turning to `O=C(Nc1ccc(Oc2ccc(F)cc2)cc1)[C@@H]1C[C@@H](NCc2ccccc2)CN1C(=O)Cc1cnc[nH]1` [Compound 173, (2S,4R)-1-(2-(1H-imidazol-5-yl)acetyl)-4-(benzylamino)-N-(4-(4-fluorophenoxy)phenyl)pyrrolidine-2-carboxamide], the IC50 was not above 300 nM.
With `O=C(NC(COCc1ccccc1)C(=O)Nc1ccc(Oc2ccccc2)cc1)c1cn[nH]c1` (stereo not shown) [Compound 355, N-(2-oxo-1-{[(phenylmethyl)oxy]methyl}-2-{[4-(phenyloxy)phenyl]amino}ethyl)-1H-pyrazole-4-carboxamide], the concentration for half-maximal inhibition (IC50) lay within 300 to 1000 nM.
On to `O=C(CCC1CCCCC1)NC(COCc1ccccc1)C(=O)Nc1ccc(Oc2ccccc2)cc1` (stereo not shown) [Compound 317, N-(2-oxo-1-{[(phenylmethyl)oxy]methyl}-2-{[4-(phenyloxy)phenyl]amino}ethyl)-3-cyclohexylpropanamide], for which the IC50 was more than 1000 nM.
In the case of `O=C(CCC(=O)c1cccs1)NC(COCc1ccccc1)C(=O)Nc1ccc(Oc2ccccc2)cc1` (stereo not shown) [Compound 312, 4-oxo-N-(2-oxo-1-{[(phenylmethyl)oxy]methyl}-2-{[4-(phenyloxy)phenyl]amino}ethyl)-4-(2-thienyl)butanamide], the concentration for half-maximal inhibition (IC50) is more than 1000 nM.
Consider `O=C(Nc1ccc(Oc2ccc(F)cc2)cc1)[C@@H]1C[C@@H](Cc2ccccc2C(F)(F)F)CN1C(=O)Cn1cncn1` [Compound 54, (2S,4R)-1-(2-(1H-1,2,4-triazol-1-yl)acetyl)-N-(4-(4-fluorophenoxy)phenyl)-4-(2-(trifluoromethyl)benzyl)pyrrolidine-2-carboxamide], for which the 50% inhibitory concentration (IC50) was not above 300 nM.
The value for `Cc1cc(CC(=O)NC(COCc2ccccc2)C(=O)Nc2ccc(Oc3ccccc3)cc2)on1` (stereo not shown) [Compound 185, 2-(2-(3-methylisoxazol-5-yl)acetamido)-3-benzyloxy-N-(4-phenoxyphenyl)propanamide] was not above 300 nM.
Regarding `O=C(Nc1ccc(Oc2ccc(F)cc2)cc1)[C@@H]1C[C@@H](Cc2ccc(F)cc2F)CN1C(=O)Cn1nccn1` [Compound 52, (2S,4R)-1-(2-(2H-1,2,3-triazol-2-yl)acetyl)-4-(2,4-difluorobenzyl)-N-(4-(4-fluorophenoxy)phenyl)pyrrolidine-2-carboxamide], the concentration for half-maximal inhibition (IC50) was not above 300 nM.
As to `O=C(NC(COCc1ccccc1)C(=O)Nc1ccc(Oc2ccccc2)cc1)c1ccco1` (stereo not shown) [Compound 283, N-(2-oxo-1-{[(phenylmethyl)oxy]methyl}-2-{[4-(phenyloxy)phenyl]amino}ethyl)furan-2-carboxamide], the IC50 was more than 1000 nM.
Take `O=C(Cc1cnc[nH]1)N[C@@H](COCc1ccccc1)C(=O)Nc1ccc(Oc2ccccc2)c(Cl)c1` [Compound 147, (S)-2-(2-(1H-imidazol-4-yl)acetamido)-3-(benzyloxy)-N-(3-chloro-4-phenoxyphenyl)propanamide]: the 50% inhibitory concentration (IC50) is not above 300 nM.
In the case of `O=C(Cn1cnnn1)N[C@@H](COCc1ccccc1)C(=O)Nc1ccc(Oc2ccccc2)cc1` [Compound 144, (S)-2-(2-(1H-tetrazol-1-yl)acetamido)-3-benzyloxy-N-(4-phenoxyphenyl)propanamide], the half-maximal inhibitory concentration (IC50) is not above 300 nM.
On to `Cc1cccc(C[C@@H]2C[C@@H](C(=O)Nc3ccc(Oc4ccc(F)cc4)cc3)N(C(=O)Cn3cncn3)C2)c1` [Compound 171, (2S,4R)-1-(2-(1H-1,2,4-triazol-1-yl)acetyl)-N-(4-(4-fluorophenoxy)phenyl)-4-(3-methylbenzyl)pyrrolidine-2-carboxamide], for which the IC50 is not above 300 nM.
On to `Cn1cc(CC(=O)NC(COCc2ccccc2)C(=O)Nc2ccc(Oc3ccccc3)cc2)c2ccccc21` (stereo not shown) [Compound 364, N-(2-oxo-1-{[(phenylmethyl)oxy]methyl}-2-{[4-(phenyloxy)phenyl]amino}ethyl)-2-(1-methyl-1H-indol-3-yl)acetamide], for which the 50% inhibitory concentration (IC50) was more than 1000 nM.
In the case of `O=C(NC(COCc1ccccc1)C(=O)Nc1ccc(Oc2ccccc2)cc1)c1ccc2[nH]cnc2c1` (stereo not shown) [Compound 342, N-(2-oxo-1-{[(phenylmethyl)oxy]methyl}-2-{[4-(phenyloxy)phenyl]amino}ethyl)-1H-benzimidazole-5-carboxamide], the IC50 was more than 1000 nM.
As to `O=C(NC(COCc1ccccc1)C(=O)Nc1ccc(Oc2ccccc2)cc1)c1ccc(C(F)(F)F)cc1C(F)(F)F` (stereo not shown) [Compound 362, N-(2-oxo-1-{[(phenylmethyl)oxy]methyl}-2-{[4-(phenyloxy)phenyl]amino}ethyl)-2,4-bis(trifluoromethyl)benzamide], the half-maximal inhibitory concentration (IC50) was in the range of 300 to 1000 nM.
The result for `O=C(CN1CCSC1)N[C@@H](COCc1ccccc1)C(=O)Nc1ccc(Oc2ccc(F)cc2)cc1` [Compound 235, (S)-3-(benzyloxy)-N-(4-(4-fluorophenoxy)phenyl)-2-(2-(thiazolidin-3-yl)acetamido)propanamide] reads 300 to 1000 nM; that for `O=C(Nc1ccc(Oc2ccc(F)cc2)cc1)[C@@H]1C[C@@H](NCc2ccsc2)CN1C(=O)Cn1cncn1` [Compound 182, (2S,4R)-1-(2-(1H-1,2,4-triazol-1-yl)acetyl)-N-(4-(4-fluorophenoxy)phenyl)-4-(thien-3-ylmethylamino)pyrrolidine-2-carboxamide], not above 300 nM; that for `O=C(Nc1ccc(Oc2ccc(F)cc2)cc1)[C@@H]1C[C@@H](Cc2ccccc2)CN1C(=O)Cc1c[nH]c2ccccc12` [Compound 98, (2S,4R)-1-(2-(1H-indol-3-yl)acetyl)-4-benzyl-N-(4-(4-fluorophenoxy)phenyl)pyrrolidine-2-carboxamide], not above 300 nM.
Regarding `CN1CCCC1CC1CCCCN1CC(=O)N[C@@H](COCc1ccccc1)C(=O)Nc1ccc(Oc2ccc(F)cc2)cc1` (stereo in doubt) [Compound 113, (2S)-3-(benzyloxy)-N-(4-(4-fluorophenoxy)phenyl)-2-(2-(2-(((S)-1-methylpyrrolidin-2-yl)methyl)piperidin-1-yl)acetamido)propanamide], the IC50 was more than 1000 nM.
With `O=C(NC(COCc1ccccc1)C(=O)Nc1ccc(Oc2ccccc2)cc1)c1c[nH]c2ccccc12` (stereo not shown) [Compound 341, N-(2-oxo-1-{[(phenylmethyl)oxy]methyl}-2-{[4-(phenyloxy)phenyl]amino}ethyl)-1H-indole-3-carboxamide], the concentration for half-maximal inhibition (IC50) is more than 1000 nM.
The result for `O=C(CN1Cc2ccccc2C1)N[C@@H](COCc1ccccc1)C(=O)Nc1ccc(Oc2ccc(F)cc2)cc1` [Compound 240, (S)-3-(benzyloxy)-N-(4-(4-fluorophenoxy)phenyl)-2-(2-(isoindolin-2-yl)acetamido)propanamide] reads 300 to 1000 nM.

The term IC50 denotes the concentration at which inhibition is half-maximal.
